Assay results from the supplement of paper PMC10733146.

What was measured:
Assay in all cases: viability relative to DMSO control (fraction); higher = less drug effect (more viable cells)
Settings in all cases: 48 h
[1] = tested on: primary AML patient cells (S021)
How it was run: (§1)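 Cells were incubated for 48 h at 37 °C and 5% CO2 in RPMI-1640 with penicillin/streptomycin, L-glutamine and human serum, at 4 × 10^4 cells per well in 384-well plates with compounds pre-plated at five concentrations, one well each. These were primary mononuclear tumour cells, fresh or cryopreserved, Ficoll-isolated from blood or bone marrow or obtained from processed lymph node. Viability values are CellTiter-Glo luminescence relative to the median of 16 inner DMSO wells.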

[2] = tested on: primary B-PLL patient cells (S016)
How it was run: as §1

[3] = tested on: primary AML patient cells (S071)
How it was run: as §1

[4] = tested on: primary AML patient cells (S060)
How it was run: as §1

[5] = tested on: primary DLBCL patient cells (S049)
How it was run: as §1

[6] = tested on: primary ALL patient cells (S088)
How it was run: as §1

[7] = tested on: primary AML patient cells (S085)
How it was run: as §1

[8] = tested on: primary AML patient cells (S019)
How it was run: as §1

[9] = tested on: primary DLBCL patient cells (S076)
How it was run: as §1

[10] = tested on: primary T-NHL patient cells (S058)
How it was run: as §1

[11] = tested on: primary AML patient cells (S017)
How it was run: as §1

[12] = tested on: primary AML patient cells (S002)
How it was run: as §1

[13] = tested on: primary AML patient cells (S011)
How it was run: as §1

[14] = tested on: primary CLL patient cells (S043)
How it was run: as §1

[15] = tested on: primary AML patient cells (S081)
How it was run: as §1

[16] = tested on: primary AML patient cells (S025)
How it was run: as §1

[17] = tested on: primary BL patient cells (S005)
How it was run: as §1

COc1cccc2c1C(=O)c1c(O)c3c(c(O)c1C2=O)C[C@@](O)(C(=O)CO)C[C@@H]3O[C@H]1C[C@H](N)[C@H](O)[C@H](C)O1 [Doxorubicin]
viability ([1]; 0.0016 µM): 0.994 | viability ([1]; 0.008 µM): 1.01 | viability ([1]; 0.04 µM): 0.929 | viability ([1]; 0.2 µM): 0.438 | viability ([1]; 1 µM): 0.182 | viability ([2]; 0.0016 µM): 1.09 | viability ([2]; 0.008 µM): 0.847 | viability ([2]; 0.04 µM): 0.175 | viability ([2]; 0.2 µM): 0.0427 | viability ([2]; 1 µM): 0.0239 | viability ([3]; 0.0016 µM): 0.978 | viability ([3]; 0.008 µM): 0.745 | viability ([3]; 0.04 µM): 0.27 | viability ([3]; 0.2 µM): 0.116 | viability ([3]; 1 µM): 0.0761 | viability ([4]; 0.0016 µM): 1.03 | viability ([4]; 0.008 µM): 1.05 | viability ([4]; 0.04 µM): 1.04 | viability ([4]; 0.2 µM): 1.16 | viability ([4]; 1 µM): 0.124 | viability ([5]; 0.0016 µM): 1.14 | viability ([5]; 0.008 µM): 1 | viability ([5]; 0.04 µM): 0.827 | viability ([5]; 0.2 µM): 0.3 | viability ([5]; 1 µM): 0.0345 | viability ([6]; 0.0016 µM): 1.05 | viability ([6]; 0.008 µM): 1.02 | viability ([6]; 0.04 µM): 0.828 | viability ([6]; 0.2 µM): 0.221 | viability ([6]; 1 µM): 0.0329 | viability ([7]; 0.0016 µM): 0.94 | viability ([7]; 0.008 µM): 1.09 | viability ([7]; 0.04 µM): 0.834 | viability ([7]; 0.2 µM): 0.278 | viability ([7]; 1 µM): 0.0284 | viability ([8]; 0.0016 µM): 1.02 | viability ([8]; 0.008 µM): 1.06 | viability ([8]; 0.04 µM): 0.828 | viability ([8]; 0.2 µM): 0.481 | viability ([8]; 1 µM): 0.219 | viability ([9]; 0.0016 µM): 1.05 | viability ([9]; 0.008 µM): 1.1 | viability ([9]; 0.04 µM): 0.822 | viability ([9]; 0.2 µM): 0.453 | viability ([9]; 1 µM): 0.034 | viability ([10]; 0.0016 µM): 1.03 | viability ([10]; 0.008 µM): 0.96 | viability ([10]; 0.04 µM): 0.823 | viability ([10]; 0.2 µM): 0.525 | viability ([10]; 1 µM): 0.145 | viability ([11]; 0.0016 µM): 1.2 | viability ([11]; 0.008 µM): 1.1 | viability ([11]; 0.04 µM): 1.07 | viability ([11]; 0.2 µM): 0.96 | viability ([11]; 1 µM): 0.146 | viability ([12]; 0.0016 µM): 1.06 | viability ([12]; 0.008 µM): 1.08 | viability ([12]; 0.04 µM): 0.695 | viability ([12]; 0.2 µM): 0.401 | viability ([12]; 1 µM): 0.33 | viability ([13]; 0.0016 µM): 1.05 | viability ([13]; 0.008 µM): 1.04 | viability ([13]; 0.04 µM): 0.973 | viability ([13]; 0.2 µM): 0.507 | viability ([13]; 1 µM): 0.0215 | viability ([14]; 0.0016 µM): 1.03 | viability ([14]; 0.008 µM): 0.956 | viability ([14]; 0.04 µM): 0.97 | viability ([14]; 0.2 µM): 0.615 | viability ([14]; 1 µM): 0.0447 | viability ([15]; 0.0016 µM): 1.05 | viability ([15]; 0.008 µM): 1.09 | viability ([15]; 0.04 µM): 1.12 | viability ([15]; 0.2 µM): 1.18 | viability ([15]; 1 µM): 0.0358 | viability ([16]; 0.0016 µM): 0.99 | viability ([16]; 0.008 µM): 1.01 | viability ([16]; 0.04 µM): 0.848 | viability ([16]; 0.2 µM): 0.501 | viability ([16]; 1 µM): 0.119 | viability ([17]; 0.0016 µM): 1.03 | viability ([17]; 0.008 µM): 1.03 | viability ([17]; 0.04 µM): 0.968 | viability ([17]; 0.2 µM): 0.875 | viability ([17]; 1 µM): 0.838
